Like-named read-outs stand apart in the source and are kept apart here.
Columns and labels:
Test in all cases: Kinase selectivity, DiscoverX scanMAX Kinase assay panel (% control)
Assay type in all cases: binding
[1] = target: T1, kinases of the scanMAX Kinase assay panel (Homo sapiens, UniProt Q15349); details: 1 uM in DMSO
T1 construct: purchased DiscoverX Co. (contract measurement) scanMAX Kinase assay panel
How it was run: (§1)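 Compounds were tested at 1 uM (in DMSO) against each panel kinase. % control was calculated as (compound − positive control)/(negative control − positive control)×100, where the positive control gives 0% and DMSO gives 100%. Activity toward a kinase was called at % control <35%.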

[2] = target: T2, kinases of the scanMAX Kinase assay panel (Homo sapiens, UniProt Q13882); details: BRK; 1 uM
T2 construct: purchased DiscoverX Co. (contract measurement) scanMAX Kinase assay panel
How it was run: as §1

[3] = target: T3, kinases of the scanMAX Kinase assay panel (Homo sapiens, UniProt Q02750); details: MEK1; 1 uM
T3 construct: purchased DiscoverX Co. (contract measurement) scanMAX Kinase assay panel
How it was run: as §1

[4] = target: T4, kinases of the scanMAX Kinase assay panel (Homo sapiens, UniProt O43683); details: BUB1; 1 uM
T4 construct: purchased DiscoverX Co. (contract measurement) scanMAX Kinase assay panel
How it was run: as §1

[5] = target: T5, kinases of the scanMAX Kinase assay panel (Homo sapiens, UniProt Q04759); details: PRKCQ; 1 uM
T5 construct: purchased DiscoverX Co. (contract measurement) scanMAX Kinase assay panel
How it was run: as §1

[6] = target: T6, kinases of the scanMAX Kinase assay panel (Homo sapiens, UniProt P00533); details: EGFR; 1 uM
T6 construct: purchased DiscoverX Co. (contract measurement) scanMAX Kinase assay panel
How it was run: as §1

[7] = target: T7, kinases of the scanMAX Kinase assay panel (Homo sapiens, UniProt P15735); details: PHKG2; 1 uM
T7 construct: purchased DiscoverX Co. (contract measurement) scanMAX Kinase assay panel
T7 sequence (P15735 1-406): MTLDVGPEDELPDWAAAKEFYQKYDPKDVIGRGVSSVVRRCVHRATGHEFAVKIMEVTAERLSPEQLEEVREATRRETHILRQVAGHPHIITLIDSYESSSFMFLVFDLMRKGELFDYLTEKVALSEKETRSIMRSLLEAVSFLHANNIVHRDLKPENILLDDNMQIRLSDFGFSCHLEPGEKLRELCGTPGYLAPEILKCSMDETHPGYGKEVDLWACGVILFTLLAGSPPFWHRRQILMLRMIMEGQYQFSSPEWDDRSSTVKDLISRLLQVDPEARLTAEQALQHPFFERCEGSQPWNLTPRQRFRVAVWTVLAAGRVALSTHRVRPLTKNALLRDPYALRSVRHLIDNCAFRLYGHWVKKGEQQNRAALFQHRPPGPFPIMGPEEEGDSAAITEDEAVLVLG
How it was run: as §1

[8] = target: T8, kinases of the scanMAX Kinase assay panel (Homo sapiens, UniProt Q15831); details: LKB1; 1 uM
T8 construct: purchased DiscoverX Co. (contract measurement) scanMAX Kinase assay panel
T8 sequence (Q15831 1-433): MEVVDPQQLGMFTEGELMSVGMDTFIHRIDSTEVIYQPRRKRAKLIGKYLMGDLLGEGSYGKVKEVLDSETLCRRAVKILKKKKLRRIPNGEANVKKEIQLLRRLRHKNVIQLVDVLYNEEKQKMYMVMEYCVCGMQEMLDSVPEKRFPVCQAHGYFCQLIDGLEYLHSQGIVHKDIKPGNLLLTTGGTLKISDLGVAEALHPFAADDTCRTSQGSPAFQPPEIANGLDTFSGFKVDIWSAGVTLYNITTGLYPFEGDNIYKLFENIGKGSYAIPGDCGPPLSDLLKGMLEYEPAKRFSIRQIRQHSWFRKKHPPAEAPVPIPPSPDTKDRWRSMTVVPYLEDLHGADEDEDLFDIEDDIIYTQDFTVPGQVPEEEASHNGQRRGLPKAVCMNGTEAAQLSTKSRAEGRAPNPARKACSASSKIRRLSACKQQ
How it was run: as §1

[9] = target: T9, kinases of the scanMAX Kinase assay panel (Homo sapiens, UniProt P57078); details: kinase RIPK4; 1 uM in DMSO
T9 construct: purchased DiscoverX Co. (contract measurement) scanMAX Kinase assay panel
T9 sequence (P57078 1-832): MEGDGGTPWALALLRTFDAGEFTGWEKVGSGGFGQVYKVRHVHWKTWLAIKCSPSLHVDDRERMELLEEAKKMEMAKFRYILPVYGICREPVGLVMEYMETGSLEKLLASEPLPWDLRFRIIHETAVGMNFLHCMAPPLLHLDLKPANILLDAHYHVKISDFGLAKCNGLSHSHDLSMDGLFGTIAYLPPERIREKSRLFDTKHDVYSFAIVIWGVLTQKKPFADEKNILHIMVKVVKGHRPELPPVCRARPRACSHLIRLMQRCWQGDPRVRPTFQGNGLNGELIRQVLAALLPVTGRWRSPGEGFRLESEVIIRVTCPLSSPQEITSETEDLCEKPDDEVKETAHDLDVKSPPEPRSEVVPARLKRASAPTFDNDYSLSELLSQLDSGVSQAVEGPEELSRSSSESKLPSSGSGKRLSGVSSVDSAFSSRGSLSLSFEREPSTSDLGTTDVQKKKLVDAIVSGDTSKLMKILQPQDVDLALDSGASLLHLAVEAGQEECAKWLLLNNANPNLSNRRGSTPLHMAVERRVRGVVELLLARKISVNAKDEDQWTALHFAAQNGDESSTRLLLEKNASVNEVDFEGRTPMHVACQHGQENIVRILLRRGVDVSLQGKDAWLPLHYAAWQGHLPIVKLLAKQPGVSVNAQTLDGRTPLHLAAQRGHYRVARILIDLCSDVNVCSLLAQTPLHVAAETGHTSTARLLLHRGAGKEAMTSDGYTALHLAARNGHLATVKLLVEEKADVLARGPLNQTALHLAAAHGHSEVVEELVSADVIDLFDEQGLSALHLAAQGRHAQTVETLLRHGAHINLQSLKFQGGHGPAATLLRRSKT
How it was run: as §1

[10] = kinase RSK3(Kin.Dom.1-N-terminal), read-out: % control, RSK3(Kin.Dom.1-N-terminal)
[11] = kinase RSK3(Kin.Dom.2-C-terminal), read-out: % control, RSK3(Kin.Dom.2-C-terminal)

T4 sequence (O43683 whole entry): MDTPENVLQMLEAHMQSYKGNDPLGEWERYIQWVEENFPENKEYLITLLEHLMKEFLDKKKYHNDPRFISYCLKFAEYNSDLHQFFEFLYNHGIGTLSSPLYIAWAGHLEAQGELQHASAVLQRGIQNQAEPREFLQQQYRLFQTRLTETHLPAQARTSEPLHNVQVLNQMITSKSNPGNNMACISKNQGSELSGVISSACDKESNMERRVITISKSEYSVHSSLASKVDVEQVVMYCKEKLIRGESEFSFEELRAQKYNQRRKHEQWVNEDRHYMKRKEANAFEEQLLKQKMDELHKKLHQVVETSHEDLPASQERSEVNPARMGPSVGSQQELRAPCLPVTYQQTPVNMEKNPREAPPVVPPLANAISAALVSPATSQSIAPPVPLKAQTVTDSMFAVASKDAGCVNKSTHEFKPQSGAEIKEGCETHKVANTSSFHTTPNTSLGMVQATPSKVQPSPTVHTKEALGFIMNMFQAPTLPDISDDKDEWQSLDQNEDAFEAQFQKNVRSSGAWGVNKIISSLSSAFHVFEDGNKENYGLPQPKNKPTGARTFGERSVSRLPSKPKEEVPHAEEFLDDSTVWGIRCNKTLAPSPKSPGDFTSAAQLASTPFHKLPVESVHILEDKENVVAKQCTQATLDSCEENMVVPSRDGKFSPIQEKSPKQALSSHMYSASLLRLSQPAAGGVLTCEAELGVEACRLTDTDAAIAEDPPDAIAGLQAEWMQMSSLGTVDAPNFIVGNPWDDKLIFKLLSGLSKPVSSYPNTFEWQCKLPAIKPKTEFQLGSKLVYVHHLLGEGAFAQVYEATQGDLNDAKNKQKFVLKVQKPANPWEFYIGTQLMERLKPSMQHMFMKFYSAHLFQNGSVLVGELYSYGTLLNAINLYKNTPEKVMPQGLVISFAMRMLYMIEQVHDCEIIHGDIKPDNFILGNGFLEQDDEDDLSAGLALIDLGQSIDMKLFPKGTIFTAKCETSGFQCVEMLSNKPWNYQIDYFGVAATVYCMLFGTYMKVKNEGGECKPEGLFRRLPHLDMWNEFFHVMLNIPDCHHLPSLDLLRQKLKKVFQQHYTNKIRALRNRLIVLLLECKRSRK
T5 sequence (Q04759 whole entry): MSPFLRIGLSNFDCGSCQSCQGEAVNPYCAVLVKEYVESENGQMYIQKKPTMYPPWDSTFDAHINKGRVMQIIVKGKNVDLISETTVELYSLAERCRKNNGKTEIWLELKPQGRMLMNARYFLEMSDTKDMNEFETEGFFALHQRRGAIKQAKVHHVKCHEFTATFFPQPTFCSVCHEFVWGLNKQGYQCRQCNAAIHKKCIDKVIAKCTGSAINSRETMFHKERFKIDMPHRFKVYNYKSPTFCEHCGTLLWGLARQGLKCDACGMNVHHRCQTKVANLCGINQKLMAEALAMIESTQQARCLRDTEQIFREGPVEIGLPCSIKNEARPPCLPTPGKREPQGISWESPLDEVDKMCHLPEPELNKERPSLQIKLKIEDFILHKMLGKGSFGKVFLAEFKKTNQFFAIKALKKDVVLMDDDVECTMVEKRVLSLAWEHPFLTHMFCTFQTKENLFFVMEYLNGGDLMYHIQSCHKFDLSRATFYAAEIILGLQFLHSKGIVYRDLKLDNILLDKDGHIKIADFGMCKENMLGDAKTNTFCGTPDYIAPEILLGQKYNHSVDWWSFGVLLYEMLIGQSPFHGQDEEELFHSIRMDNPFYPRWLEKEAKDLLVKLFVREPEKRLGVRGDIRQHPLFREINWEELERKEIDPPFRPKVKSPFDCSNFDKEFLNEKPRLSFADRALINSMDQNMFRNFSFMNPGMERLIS
T1 sequence (Q15349 whole entry): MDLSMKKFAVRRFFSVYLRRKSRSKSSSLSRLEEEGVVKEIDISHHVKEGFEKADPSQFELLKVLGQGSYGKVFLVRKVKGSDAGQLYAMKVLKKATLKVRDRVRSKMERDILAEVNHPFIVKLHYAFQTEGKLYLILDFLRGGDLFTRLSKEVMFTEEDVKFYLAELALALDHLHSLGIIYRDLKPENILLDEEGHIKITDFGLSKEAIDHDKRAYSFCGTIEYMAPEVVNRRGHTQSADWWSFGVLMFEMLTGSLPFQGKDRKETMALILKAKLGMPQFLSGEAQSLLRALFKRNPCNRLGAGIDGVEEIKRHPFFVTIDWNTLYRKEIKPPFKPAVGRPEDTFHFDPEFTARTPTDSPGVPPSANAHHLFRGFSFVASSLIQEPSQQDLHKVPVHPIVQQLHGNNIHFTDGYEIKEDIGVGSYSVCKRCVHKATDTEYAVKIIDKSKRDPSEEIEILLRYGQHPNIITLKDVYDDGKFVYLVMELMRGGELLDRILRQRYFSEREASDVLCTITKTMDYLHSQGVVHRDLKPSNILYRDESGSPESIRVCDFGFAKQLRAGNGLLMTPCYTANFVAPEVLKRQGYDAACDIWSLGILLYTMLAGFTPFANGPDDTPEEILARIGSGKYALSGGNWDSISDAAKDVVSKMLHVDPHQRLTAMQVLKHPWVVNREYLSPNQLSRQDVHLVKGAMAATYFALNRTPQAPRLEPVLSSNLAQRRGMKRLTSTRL
T6 sequence (P00533 25-1210): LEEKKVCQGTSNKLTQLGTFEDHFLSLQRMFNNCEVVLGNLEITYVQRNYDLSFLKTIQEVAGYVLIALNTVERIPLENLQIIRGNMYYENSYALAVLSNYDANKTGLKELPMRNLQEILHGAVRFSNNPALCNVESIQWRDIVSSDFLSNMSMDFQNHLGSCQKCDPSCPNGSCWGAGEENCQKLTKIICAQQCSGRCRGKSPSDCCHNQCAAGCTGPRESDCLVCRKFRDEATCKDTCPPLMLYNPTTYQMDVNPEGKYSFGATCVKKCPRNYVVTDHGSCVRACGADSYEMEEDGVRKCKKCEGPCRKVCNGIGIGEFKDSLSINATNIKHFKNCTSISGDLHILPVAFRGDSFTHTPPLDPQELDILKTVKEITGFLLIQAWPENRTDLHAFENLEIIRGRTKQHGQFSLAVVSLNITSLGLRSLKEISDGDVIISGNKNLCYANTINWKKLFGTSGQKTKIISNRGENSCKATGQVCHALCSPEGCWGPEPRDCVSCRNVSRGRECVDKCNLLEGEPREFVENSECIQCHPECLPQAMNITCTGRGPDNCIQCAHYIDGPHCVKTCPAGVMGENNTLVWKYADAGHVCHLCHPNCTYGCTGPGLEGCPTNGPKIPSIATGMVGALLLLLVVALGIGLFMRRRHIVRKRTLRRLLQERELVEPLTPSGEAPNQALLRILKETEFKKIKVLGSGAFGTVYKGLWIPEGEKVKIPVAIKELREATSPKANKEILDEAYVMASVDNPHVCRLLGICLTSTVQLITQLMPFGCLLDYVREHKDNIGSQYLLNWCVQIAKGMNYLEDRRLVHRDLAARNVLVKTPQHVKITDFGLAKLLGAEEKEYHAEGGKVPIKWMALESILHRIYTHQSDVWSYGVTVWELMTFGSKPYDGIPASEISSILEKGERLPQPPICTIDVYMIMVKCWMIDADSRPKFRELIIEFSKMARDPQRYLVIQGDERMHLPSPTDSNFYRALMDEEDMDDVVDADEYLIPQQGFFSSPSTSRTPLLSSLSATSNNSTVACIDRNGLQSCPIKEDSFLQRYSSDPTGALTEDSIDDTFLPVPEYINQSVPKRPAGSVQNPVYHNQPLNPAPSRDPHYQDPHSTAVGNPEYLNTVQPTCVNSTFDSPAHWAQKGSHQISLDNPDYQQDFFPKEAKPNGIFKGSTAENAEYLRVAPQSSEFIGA
T3 sequence (Q02750 whole entry): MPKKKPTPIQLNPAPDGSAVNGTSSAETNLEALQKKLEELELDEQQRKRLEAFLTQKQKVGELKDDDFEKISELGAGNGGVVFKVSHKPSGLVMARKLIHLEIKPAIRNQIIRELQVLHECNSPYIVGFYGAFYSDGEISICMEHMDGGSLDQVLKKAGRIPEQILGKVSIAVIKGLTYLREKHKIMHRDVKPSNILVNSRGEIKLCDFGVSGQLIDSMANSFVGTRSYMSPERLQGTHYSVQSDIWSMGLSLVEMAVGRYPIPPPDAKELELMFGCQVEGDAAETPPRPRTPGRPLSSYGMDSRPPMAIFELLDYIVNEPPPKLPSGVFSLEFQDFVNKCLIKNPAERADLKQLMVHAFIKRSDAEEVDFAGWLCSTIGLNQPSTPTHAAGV
T2 sequence (Q13882 whole entry): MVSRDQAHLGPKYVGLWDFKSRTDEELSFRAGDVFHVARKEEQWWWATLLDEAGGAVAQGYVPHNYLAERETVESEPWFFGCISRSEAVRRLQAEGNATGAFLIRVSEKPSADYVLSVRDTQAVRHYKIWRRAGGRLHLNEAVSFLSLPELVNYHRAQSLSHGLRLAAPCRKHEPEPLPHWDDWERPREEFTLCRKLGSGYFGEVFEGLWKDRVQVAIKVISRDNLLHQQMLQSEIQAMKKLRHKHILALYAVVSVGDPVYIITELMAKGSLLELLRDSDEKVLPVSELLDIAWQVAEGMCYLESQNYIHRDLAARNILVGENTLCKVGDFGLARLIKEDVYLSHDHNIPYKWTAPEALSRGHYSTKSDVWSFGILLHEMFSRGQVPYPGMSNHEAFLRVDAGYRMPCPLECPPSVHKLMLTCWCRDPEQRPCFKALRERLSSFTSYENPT

CC1(Nc2nc(Nc3cnn([C@H]4CCN(C5COC5)C[C@@H]4F)c3Cl)nc3[nH]cc(C#N)c23)CC1 [Example 52, 2-((5-chloro-1-((3S,4S)-3-fluoro-1-(oxetane-3-yl)piperidine-4-yl)-1H-pyrazole-4-yl)amino)((1-methylcyclopropyl)amino)-7H-pyrrolo[2,3-d]pyrimidine-5-carbonitrile]
remaining binding at 1 µM [1, 10]: 4.3%
remaining binding at 1 µM [1, 11]: 28%
remaining binding at 1 µM [2]: 24%
remaining binding at 1 µM [3]: 0.1%
remaining binding at 1 µM [4]: 0.2%
remaining binding at 1 µM [5]: 47%
remaining binding at 1 µM [6]: 31%
remaining binding at 1 µM [7]: 5.2%
remaining binding at 1 µM [8]: 31%
remaining binding at 1 µM [9]: 1.6%

CNc1nc(Nc2ccc(C(=O)N3CCOCC3)cc2OC)nc2[nH]cc(C#N)c12 [Example 1, 2-((2-methoxy-4-(morpholine-4-carbonyl)phenyl)amino)-4-(methylamino)-7H-pyrrolo[2,3-d]pyrimidine-5-carbonitrile]
remaining binding at 1 µM [1, 10]: 90%
remaining binding at 1 µM [1, 11]: 23%
remaining binding at 1 µM [2]: 93%
remaining binding at 1 µM [3]: 89%
remaining binding at 1 µM [4]: 36%
remaining binding at 1 µM [5]: 95%
remaining binding at 1 µM [6]: 91%
remaining binding at 1 µM [7]: 14%
remaining binding at 1 µM [8]: 91%
remaining binding at 1 µM [9]: 72%

CCNc1nc(Nc2ccc(C(=O)N3CCC(N4CCOCC4)CC3)cc2OC)nc2[nH]cc(C(F)(F)F)c12 [Example 104, (4-((4-(ethylamino)-5-(trifluoromethyl)-7H-pyrrolo[2,3-d]pyrimidine-2-yl)amino)-3-methoxyphenyl)(4-morpholinopiperidine-1-yl)methanone]
remaining binding at 1 µM [1, 10]: 100%
remaining binding at 1 µM [1, 11]: 66%
remaining binding at 1 µM [2]: 64%
remaining binding at 1 µM [3]: 86%
remaining binding at 1 µM [4]: 95%
remaining binding at 1 µM [5]: 100%
remaining binding at 1 µM [6]: 82%
remaining binding at 1 µM [7]: 9.3%
remaining binding at 1 µM [8]: 87%
remaining binding at 1 µM [9]: 0.6%

From patent US11208412B2 (DAEGU-GYEONGBUK MEDICAL INNOVATION FOUNDATION, priority 2017, dated 2021)
